According to patent US20180368404A1, “3-PYRIDYL HETEROBICYCLIC COMPOUND FOR CONTROLLING INVERTEBRATE PESTS” (BASF SE, priority 2014, published 2018):

How the values were obtained:
Type in all cases: in vivo
[1] = test system: Cowpea Aphid (Aphis craccivora); test: Cowpea aphid spray test on potted cowpea plants; conditions: population reduction assessed after 24, 72 and 120 hours, read-out: mortality in comparison with untreated controls
Procedure: If not otherwise specified the test solutions were prepared as follows:
The active compound was dissolved at the desired concentration in a mixture of 1:1 (vol:vol) distilled water: acetone. The test solution was prepared at the day of use and in general at concentrations of ppm (wt/vol).
Potted cowpea plants colonized with 100-150 aphids of various stages were sprayed after the pest population had been recorded. Population reduction was assessed after 24, 72, and 120 hours.

[2] = test system: Silverleaf Whitefly (Bemisia argentifolii, Adult); test: Silverleaf whitefly test on sprayed cotton plants; conditions: 72 h, 3 days after treatment, read-out: mortality in comparison with untreated controls
Procedure: (§1) The active compounds were formulated in cyclohexanone as a 10,000 ppm solution supplied in 1.3 ml ABgene® tubes. These tubes were inserted into an automated electrostatic sprayer equipped with an atomizing nozzle and they served as stock solutions for which lower dilutions were made in 1:1 (vol:vol) water: acetone. A nonionic surfactant (Kinetic®) was included in the solution at a volume of 0.01% (v/v).
Cotton plants at the cotyledon stage (one plant per pot) were sprayed by an automated electrostatic plant sprayer equipped with an atomizing spray nozzle. The plants were dried in the sprayer fume hood and then removed from the sprayer. Each pot was placed into a plastic cup and 10 to 12 whitefly adults (approximately 3-5 days […]) were introduced. The insects were collected using an aspirator and 0.6 cm, nontoxic Tygon® tubing (R-3603) connected to a barrier pipette tip. The tip, containing the collected insects, was then gently inserted into the soil containing the treated plant, allowing insects to crawl out of the tip to reach the foliage for feeding. Cups were covered with a reusable screened lid (150-micron mesh polyester screen PeCap from Tetko, Inc.). Test plants were maintained in a growth room at 25° C. and 20-40% relative humidity for 3 days, avoiding direct exposure to fluorescent light (24 hour photoperiod) to prevent trapping of heat inside the cup. Mortality was assessed 3 days after treatment, compared to untreated control plants.

[3] = test system: Vetch Aphid (Megoura viciae); test: Vetch aphid bean leaf disk microtiter test; conditions: foliar, 144 h, leaf disks sprayed with 2.5 μl, 6 days, read-out: mortality in comparison with untreated controls
Procedure: The active compounds were formulated in 3:1 (vol:vol) water: DMSO with different concentrations of formulated compounds.
Bean leaf disks were placed into microtiterplates filled with 0.8% agar-agar and 2.5 ppm OPUS™. The leaf disks were sprayed with 2.5 μl of the test solution and 5 to 8 adult aphids were placed into the microtiter plates which were then closed and kept at 23±1° C. and 50±5% relative humidity under fluorescent light for 6 days. Mortality was assessed on the basis of vital, reproduced aphids. Aphid mortality and fecundity was then visually assessed.

[4] = test system: Cotton Aphid (Aphis gossypii, Mixed Life Stages); test: Cotton aphid spray test on infested cotton plants; conditions: 120 h, after 5 days, read-out: mortality in comparison with untreated controls
Procedure: as §1
Cotton plants at the cotyledon stage were infested with aphids prior to treatment by placing a heavily infested leaf from the main aphid colony on top of each cotyledon. Aphids were allowed to transfer overnight to accomplish an infestation of 80-100 aphids per plant and the host leaf was removed. The infested plants were then sprayed by an automated electrostatic plant sprayer equipped with an atomizing spray nozzle. The plants were dried in the sprayer fume hood, removed from the sprayer, and then maintained in a growth room under fluorescent lighting in a 24-hr photoperiod at 25° C. and 20-40% relative humidity. Aphid mortality on the treated plants, relative to mortality on untreated control plants, was determined after 5 days.

[5] = test system: Green Peach Aphid (Myzus persicae); test: Green peach aphid spray test on infested bell pepper plants; conditions: 120 h, after 5 days, read-out: mortality in comparison with untreated controls
Procedure: as §1
Bell pepper plants at the first true-leaf stage were infested prior to treatment by placing heavily infested leaves from the main colony on top of the treatment plants. Aphids were allowed to transfer overnight to accomplish an infestation of 30-50 aphids per plant and the host leaves were removed. The infested plants were then sprayed by an automated electrostatic plant sprayer equipped with an atomizing spray nozzle. The plants were dried in the sprayer fume hood, removed, and then maintained in a growth room under fluorescent lighting in a 24 hour photoperiod at 25° C. and 20-40% relative humidity. Aphid mortality on the treated plants, relative to mortality on untreated control plants, was determined after 5 days.

[6] = test system: Orchid thrips (Dichromothrips corbetti); test: Orchid thrips petal dip test; conditions: petals dipped, after 72 hours, read-out: mortality in comparison with untreated controls
Procedure: The active compounds were formulated as a 1:1 (vol:vol) water: acetone solution. Surfactant (Alkamuls EL 620) was added at the rate of 0.1% (vol/vol). Vanda orchids petals were cleaned, washed and air dried prior to spraying. Petals were dipped into the test solution for 3 seconds, air dried, placed inside a resealable plastic and inoculated with 20 adults. The treated petals were kept inside the […] room at 28-29° C. and relative humidity of 50-60%. Percent mortality was recorded after 72 hours.

COc1ccc2nc(-c3cccnc3)oc2c1 [I-1, 6-methoxy-2-(3-pyridyl)-1,3-benzoxazole]
≥ 75%: mortality at 500 ppm [1]

COc1ccc2nn(-c3cccnc3)cc2c1 [I-B4, 5-methoxy-2-(3-pyridyl)indazole]
≥ 75%: mortality at 300 ppm [2]

CCOCCSc1ccc2nn(-c3cccnc3)cc2c1 [I-B5, 5-(2-ethoxyethylsulfanyl)-2-(3-pyridyl)indazole]
≥ 75%: mortality at 800 ppm [3] | mortality at 500 ppm [1]

CCOCCSc1cccc2nn(-c3cccnc3)cc12 [I-C1, 4-(2-ethoxyethylsulfanyl)-2-(3-pyridyl)indazole]
≥ 75%: mortality at 300 ppm [4] | mortality at 800 ppm [3] | mortality at 300 ppm [2] | mortality at 300 ppm [5] | mortality at 500 ppm [1]

CCOCCSc1ccc2nn(-c3cccnc3)cc2n1 [I-D16, 5-(2-ethoxyethylsulfanyl)-2-(3-pyridyl)pyrazolo[4,3-b]pyridine]
≥ 75%: mortality at 300 ppm [4] | mortality at 800 ppm [3] | mortality at 300 ppm [5]

CCOCC[S+]([O-])c1ccc2nn(-c3cccnc3)cc2n1 (centres unmarked) [I-D39, 5-(2-ethoxyethylsulfinyl)-2-(3-pyridyl)pyrazolo[4,3-b]pyridine]
≥ 75%: mortality at 300 ppm [4] | mortality at 800 ppm [3] | mortality at 300 ppm [2] | mortality at 300 ppm [5]

CCOCCS(=O)(=O)c1ccc2nn(-c3cccnc3)cc2n1 [I-D46, 5-(2-ethoxyethylsulfonyl)-2-(3-pyridyl)pyrazolo[4,3-b]pyridine]
≥ 75%: mortality at 300 ppm [4] | mortality at 800 ppm [3] | mortality at 300 ppm [2] | mortality at 300 ppm [5]

COc1ccc2nn(-c3cccnc3)cc2n1 [I-D57, 5-methoxy-2-(3-pyridyl)pyrazolo[4,3-b]pyridine]
≥ 75%: mortality at 300 ppm [4] | mortality at 800 ppm [3] | mortality at 300 ppm [2] | mortality at 300 ppm [5] | mortality at 500 ppm [1]

CC(C)(COc1ccc2nn(-c3cccnc3)cc2n1)S(C)(=O)=O [I-D59, 5-(2-methyl-2-methylsulfonyl-propoxy)-2-(3-pyridyl)pyrazolo[4,3-b]pyridine]
≥ 75%: mortality at 300 ppm [4] | mortality at 800 ppm [3] | mortality at 300 ppm [2] | mortality at 500 ppm [6] | mortality at 300 ppm [5] | mortality at 500 ppm [1]

FC(F)(F)COc1ccc2nc(-c3cccnc3)cn2n1 [I-E14, 2-(3-pyridyl)-6-(2,2,2-trifluoroethoxy)imidazo[1,2-b]pyridazine]
≥ 75%: mortality at 300 ppm [4] | mortality at 800 ppm [3] | mortality at 300 ppm [2] | mortality at 300 ppm [5]

COc1ccc2nc(-c3cccnc3)sc2n1 [I-H4, 5-methoxy-2-(3-pyridyl)thiazolo[5,4-b]pyridine]
≥ 75%: mortality at 500 ppm [1]

COc1ccc2nc(-c3cccnc3)oc2n1 [I-K1, 5-methoxy-2-(3-pyridyl)oxazolo[5,4-b]pyridine]
≥ 75%: mortality at 300 ppm [4] | mortality at 800 ppm [3] | mortality at 300 ppm [2] | mortality at 300 ppm [5] | mortality at 500 ppm [1]
